{"source": "patent US20160177395A1", "about": "“BIOMARKERS FOR THE PREDICTION OF RENAL INJURY” (priority 2007, published 2016)", "system": "kidney tissues of treated or untreated rats", "assay": "Real-time qRT-PCR of marker transcripts in kidney tissue panel, discovery stage (Table 22)", "format": "in vivo, rat", "set-up": "AI502869_DB71_seg0 normalized Real Time PCR expression: unit not given beside the values", "details": "listed as CadCl; for normalized Real Time PCR RATRAB13X_DB81_seg15-17 / normalized Real Time PCR RATRAB13X_DB81_seg22 / normalized Real Time PCR W33294_DB81_seg23 / normalized Real Time PCR W33294_DB81_seg44 / normalized Real Time PCR MMU09507_DB81_seg15 / normalized Real Time PCR MUSCYCG1R_DB81_seg19-20: kidney", "experimental": "Before RT preparation the RNA was treated with DNA-free (Ambion, cat. No. AM1906) DNase treatment and removal—according to manufacturer protocol. DNase procedure was repeated until no DNA is detected in a PCR reaction using the RNA samples.\nThe mixture is then incubated for 5 min at 65° C. and then quickly chilled on ice. Thereafter, 20 μl of 5× SuperscriptII first strand buffer (Invitrogen, Cat. No. Y00146), 9.6 μl 0.1M DTT (Invitrogen, Cat. No. Y00147) and 160 units RNasin (Promega, Cat. No. N251A) are added, and the mixture is incubated for 10 min at 25° C., followed by further incubation at 42° C. for 2 min. […] The resulting cDNA is diluted 1:20 in TE buffer (10 mM Tris pH=8, 1 mM EDTA pH=8).\ncDNA (5 μl), prepared as described above, is used as a template in Real-Time PCR reactions using the SYBR Green I assay (PE Applied Biosystem) with specific primers in 100 nM concentration if not indicated otherwise and UNG Enzyme (Eurogentech or equal) Amplification is effected as follows: 50° C. for 2 min, 95° C. for 10 min, and then 40 cycles of 95° C. for 15 sec, followed by 60° C. for 1 min (if not indicated otherwise). Amplification step is followed by dissociation step. Detection is performed by using the PE Applied Biosystem SDS 7000. The cycle in which the reactions achieved a threshold level (Ct) of fluorescence is registered and is used to calculate the relative transcript quantity in the RT reactions. Non-detected samples are assigned Ct value of 41 and are calculated accordingly. The relative quantity is calculated using the equation Q=efficiencŷ-Ct. The efficiency of the PCR reaction is calculated from a standard curve, created by using serial dilutions of several reverse transcription (RT) reactions. To minimize inherent differences in the RT reaction, the resulting relative quantities are normalized to normalization factor calculated as follows: […]\nThe relative quantity (Q) of each housekeeping gene in each sample is calculated as described above. In order to calculate the “relative Q relative to MED” each Q for each HSKP gene is divided by the median quantity of this gene in all panel samples. To finally achieve the normalization factor of each sample the geometric mean of all four “relative Q relative to MED” was calculated. The normalization factor was then used for further calculations.\nThe markers of the present invention were tested with regard to their expression in a panel of kidney tissues samples from treated and control rats. Unless otherwise noted, all experimental data relates to the novel polynucleotides and proteins of the present invention, named according to the segment being tested (as expression was tested through RT-PCR as described). Tests were then performed as described in the “Materials and Experimental Procedures” section above.\nThe qRT-PCR measurements were normalized according to each samples normalization factor as described in “RT Preparation and Real-Time qRT-PCR Analysis” and further multiplied by a constant factor for ease of viewing.", "key": {"[1]": {"details": "rat kidney, day1, individual animals (F and M)"}, "[2]": {"details": "rat kidney, day1, individual animals"}}, "note": "Values joined by “and” are separate entries in the source; they are usually repeats but may differ in a detail not shown here. Equal entries are not always repeated."}
{"smiles": "[Cl][Cd][Cl]", "note": "[Cadmium chloride]", "values": [{"measurement": "normalized Real Time PCR RATRAB13X_DB81_seg15-17", "setting": "female rats, day1", "result": "1.63 and 1.8 and 1.55"}, {"measurement": "normalized Real Time PCR RATRAB13X_DB81_seg22", "setting": "female rats, day1", "result": "1.73 and 1.83 and 1.16"}, {"measurement": "normalized Real Time PCR W33294_DB81_seg23", "setting": "female rats, day1", "result": "1.9 and 1.74 and 1.36"}, {"measurement": "normalized Real Time PCR W33294_DB81_seg44", "setting": "female rats, day1", "result": "1.79 and 1.39 and 1.57"}, {"measurement": "normalized Real Time PCR MMU09507_DB81_seg15", "setting": "female rats, day5", "result": "0.87 and 0.56"}, {"measurement": "normalized Real Time PCR MUSCYCG1R_DB81_seg19-20", "setting": "female rats, day5", "result": "1.21 and 1.01"}, {"measurement": "normalized Real Time PCR RATRAB13X_DB81_seg15-17", "setting": "female rats, day5", "result": "1.81 and 0.97"}, {"measurement": "normalized Real Time PCR RATRAB13X_DB81_seg22", "setting": "female rats, day5", "result": "1.56 and 1.1"}, {"measurement": "normalized Real Time PCR W33294_DB81_seg23", "setting": "female rats, day5", "result": "1.76 and 1.7"}, {"measurement": "normalized Real Time PCR W33294_DB81_seg44", "setting": "female rats, day5", "result": "2.05 and 1.37"}, {"measurement": "normalized Real Time PCR MUSCYCG1R_DB81_seg19-20", "setting": "female rats, day28", "result": "0.54 and 0.62 and 0.56"}, {"measurement": "normalized Real Time PCR RATRAB13X_DB81_seg15-17", "setting": "female rats, day28", "result": "0.83 and 0.89 and 0.82"}, {"measurement": "normalized Real Time PCR RATRAB13X_DB81_seg22", "setting": "female rats, day28", "result": "0.7 and 0.9 and 0.46"}, {"measurement": "normalized Real Time PCR W33294_DB81_seg23", "setting": "female rats, day28", "result": "0.94 and 0.97 and 0.85"}, {"measurement": "normalized Real Time PCR W33294_DB81_seg44", "setting": "female rats, day28", "result": "0.88 and 0.69 and 0.7"}, {"measurement": "normalized Real Time PCR MUSCYCG1R_DB81_seg19-20", "setting": "male rats, day1", "result": "0.58 and 1.03 and 0.78"}, {"measurement": "normalized Real Time PCR RATRAB13X_DB81_seg15-17", "setting": "male rats, day1", "result": "0.73 and 0.92 and 1.01"}, {"measurement": "normalized Real Time PCR RATRAB13X_DB81_seg22", "setting": "male rats, day1", "result": "0.92 and 1.29 and 0.67"}, {"measurement": "normalized Real Time PCR W33294_DB81_seg23", "setting": "male rats, day1", "result": "0.62 and 0.31 and 0.37"}, {"measurement": "normalized Real Time PCR MMU09507_DB81_seg15", "setting": "male rats, day5", "result": "0.33 and 0.49 and 0.38"}, {"measurement": "normalized Real Time PCR MUSCYCG1R_DB81_seg19-20", "setting": "male rats, day5", "result": "1.22 and 1.12 and 1.04"}, {"measurement": "normalized Real Time PCR RATRAB13X_DB81_seg15-17", "setting": "male rats, day5", "result": "1.18 and 0.88 and 1.07"}, {"measurement": "normalized Real Time PCR RATRAB13X_DB81_seg22", "setting": "male rats, day5", "result": "1.65 and 1.58 and 1.21"}, {"measurement": "normalized Real Time PCR W33294_DB81_seg23", "setting": "male rats, day5", "result": "1.41 and 1.45 and 1.03"}, {"measurement": "normalized Real Time PCR W33294_DB81_seg44", "setting": "male rats, day5", "result": "1.32 and 1.43 and 1.42"}, {"measurement": "normalized Real Time PCR MMU09507_DB81_seg15", "setting": "male rats, day28", "result": "0.42 and 0.45"}, {"measurement": "normalized Real Time PCR RATRAB13X_DB81_seg22", "setting": "male rats, day28", "result": "0.63 and 0.87 and 0.49"}, {"measurement": "normalized Real Time PCR W33294_DB81_seg23", "setting": "male rats, day28", "result": "0.7 and 0.65"}, {"measurement": "normalized Real Time PCR W33294_DB81_seg44", "setting": "male rats, day28", "result": "0.73 and 0.53"}, {"measurement": "H33998_DB71_seg19 normalized Real Time PCR", "setting": "[1]", "result": "2.29 and 2.51 and 0.01 and 0.76 and 0.66 and 0.69"}, {"measurement": "MUSCYCG1R_DB81_seg15-17 normalized Real Time PCR", "setting": "[1]", "result": "1.91 and 1.36 and 1.68 and 0.61 and 0.73 and 0.36"}, {"measurement": "RATLRFI_DB71_seg9 normalized Real Time PCR", "setting": "[1]", "result": "0.27 (2×) and 0.33 and 0.32 and 0.36 and 0.23"}, {"measurement": "RATRAB13X_DB71_seg11-13 normalized Real Time PCR", "setting": "[1]", "result": "0.95 (2×) and 1.2 and 1.05 and 1.22 and 1.14"}, {"measurement": "RNU24174_DB71_seg8 normalized Real Time PCR", "setting": "[1]", "result": "0.3 and 0.29 and 0.49 and 0.2 and 0.4 and 0.22"}, {"measurement": "W41270_DB81_seg11 normalized Real Time PCR", "setting": "[1]", "result": "1.44 and 1.78 and 1.48 and 0.5 and 0.62 and 0.43"}, {"measurement": "W64472_DB81_seg2 normalized Real Time PCR", "setting": "[1]", "result": "1.07 (2×) and 1.1 and 0.55 and 1.45 and 0.41"}, {"measurement": "W83813_DB81_seg27 normalized Real Time PCR", "setting": "[1]", "result": "2.07 and 2.19 and 1.66 and 0.47 and 0.51 and 0.65"}, {"measurement": "AA686189_DB71_seg6 normalized Real Time PCR expression", "setting": "[2]", "result": "0.38 (2×) and 0.52 and 0.36 and 0.59 and 0.64"}, {"measurement": "AA799594_DB71_seg0 normalized Real Time PCR expression", "setting": "[2]", "result": "1.25 and 1.43 and 1.27 and 1.09 and 1.15 and 1.05"}, {"measurement": "AA964541_DB71_seg0 normalized Real Time PCR expression", "setting": "[2]", "result": "0.41 and 0.55 and 0.3 and 0.28 and 0.6 and 0.56"}, {"measurement": "AI045075_DB71_seg6 normalized Real Time PCR expression", "setting": "[2]", "result": "0.6 and 0.54 and 0.5 and 0.66 and 0.87 and 0.84"}, {"measurement": "AI454051_DB71_seg0 normalized Real Time PCR expression", "setting": "[2]", "result": "1.47 and 1.46 and 1.08 and 1.48 and 2.13 and 0.77"}, {"measurement": "AI502869_DB71_seg0 normalized Real Time PCR expression", "setting": "[2]", "result": "0.54 and 1.37 and 0.56 and 1.14 and 2.59 and 0.86"}]}
